Laboratory results taken from patent publication US7985774B2, “Use of 3,5-seco-4-nor-cholestane derivatives for obtaining a cytoprotective drug” (Trophos, priority 2006, dated 2011).

Assays:
[1] = system: rabbit ventricular cardiomyocytes; test: Annexin V marking of phosphatidylserine (apoptosis) after doxorubicin; assay type: cell-based; settings: 3 hrs after doxorubicin, control 100%
Method: (§1) Isolated ventricular cells are obtained from hearts of male New Zealand rabbits as described in A. d'Anglemont de Tassigny et al., Fund. Clin. Pharmacol, 18: 531-38, 2004. Briefly, the rabbits (2.0-2.5 kg) are anaesthetized with a pentobarbital solution (50 mg/kg) and they then receive heparin (200 IU/kg). The hearts are excised and immediately perfused, for 10-15 minutes by means of a Langendorff apparatus without recirculation with an oxygenated tyrode (calcium-free) isotonic solution (95%, 2-5% CO2) (in mM: NaCl 135, KCl 5.4, Na2PO4 0.33, MgCl2 1.0, HEPES 10, pH adjusted to 7.4 with 1N NaOH at 37° C., 280-300 mOsmol/kgH2O). Next, all the hearts are perfused for 3 minutes in the “recirculation” mode with the same calcium-free Tyrode solution (coronary flow rate, 10-15 mL/min) added with 1 mg/mL of type II collagenase and 0.28 mg/mL of XIV type protease. Finally, all the hearts are perfused in a mode without any recirculation with the same solution of Tyrode supplemented with 0.3 mM of CaCl2 for 10 min. The left ventricle is removed and cut into small pieces; cell dissociation is achieved by mild mechanical stirring. Extracellular calcium is added by increments every 15 minutes, in order to reach a physiological concentration of 1.0 mM. […]
Annexin V marking of phosphatidylserine was used as a quantitative method for measuring apoptosis by using the MiniMacs cell isolation kit (Miltenyi Biotec, Bergisch, Gladbach, Germany). […] The column is removed from the magnetic field, the cells exposing phosphatidylserine, magnetically retained, are eluted as a positive fraction and counted with a Mallassez cell counter. […]
(§2) Apoptosis is induced in isolated cardiomyocytes by 3-8 hour exposure to 1 μM of doxorubicin added into an isotonic solution containing (in mM) NaCl 110, KCl 5.4, Na2PO4 0.33, NaHCO3 25, glucose 5, MgCl2 0.8, CaCl2 1, pH adjusted to 7.4. […] The contractility of cardiomyocytes was measured every hour during the 8 hrs of exposure to doxorubicin. […]

caspase-3 = test: Caspase-3 activity (apoptosis) after doxorubicin; assay type: cell-based, rabbit; settings: 8 hrs after exposure, control 19±9
Method: as §1
Caspase-3 activity is used as a quantitative method for measuring apoptosis. […] The fluorogenic substrate for measuring caspase-3 activity (DEVD) is marked with the fluorochrome, 7-amino-4-methyl coumarine (AMC), which produces […] fluorescence detectable in UV light at 360/460 nm for 210 min. […]
as §2

CD1 mice = test: Acute hepatotoxicity: intoxication by Jo2 anti-Fas antibody and assaying ALATs; assay type: in vivo; settings: blood 24 hrs after Jo2, control 2,860 ± 382
Source text: An acute model of hepatic damage may be induced by a single injection of the Jo2 anti-Fas antibody (Ogasawara et al., Nature, August 1993), producing severe hepatic damages and resembling viral, auto-immune or drug-induced hepatitis.
Alanine Aminotransferase (ALAT) also called Serum Glutamic Pyruvic Transaminase (SGPT) is an enzyme present in hepatocytes.
Male adult CD1 mice from the breeder “Elevage Janvier”, (Le Genest-Saint-Isle, France) were used. The animals were identified individually and had free access to water and food.
A stock solution of monoclonal hamster anti-mouse CD95 (Fas) antibody, called Jo2, from Pharmingen (BD Biosciences, ref. 554254 batch 32699) is prepared at a concentration of 1 mg/mL in water. The dilutions used are made in 0.9% sodium chloride in water.
The desired amount of 3,5-seco-4-nor-cholestan-5-one oxime-3-ol is weighed and milled into a fine powder, and then mixed with Cremophore EL (Sigma C5135) and absolute ethanol (Carlo Erba RPE 41571) (5% and 10% of the final volume, respectively). After complete dissolution, 0.9% sodium chloride in water is added extemporaneously (85% of the final volume).
Pretreatment with 3,5-seco-4-nor-cholestan-5-one oxime-3-ol is carried out with dosages of 10 and 30 mg/kg by intraperitoneal administration 1 hr before administering the Jo2 antibody. […]

[2] = doxorubicin 1 μM + compound 0.1 μM
[3] = doxorubicin 1 μM + compound 0.3 μM

CC(C)CCC[C@@H](C)[C@H]1CC[C@H]2[C@@H]3CC/C(=N\O)[C@](C)(CCCO)[C@H]3CC[C@]12C [3,5-seco-4-nor-cholestan-5-one oxime-3-ol]
Apoptosis as % of change in annexin V marking [1, 2]: 116.3% | Apoptosis as % of change in annexin V marking [1, 3]: 137.3% | caspase-3 activity (caspase-3; [2]): 27 ± 20 fmol/min | caspase-3 activity (caspase-3; [3]): 15 ± 7 fmol/min | ALAT activity Average +/− SEM (CD1 mice; 10 mg/kg i.p. 1 hr before Jo2 125 μg/kg i.p.): 511 ± 140 U/L | ALAT activity Average +/− SEM (CD1 mice; 30 mg/kg i.p. 1 hr before Jo2 125 μg/kg i.p.): 533 ± 150 U/L
